Measured values published in ChEMBL document CHEMBL6153017, “Progress on the mechanism of natural products alleviating androgenetic alopecia” (2024).

How the values were obtained:
Assay type in all cases: functional
[1] = test system: Hair follicle; assay: Upregulation of SHH mRNA expression in human hair follicle assessed as fold change at 0.5 uM measured for 48 hrs by qRT-PCR analysis
[2] = test system: Hair follicle; assay: Upregulation of RBPJ mRNA expression in human hair follicle assessed as fold change at 5 ug/ml; conditions: dose 5 µg/ml
[3] = test system: Hair follicle; assay: Upregulation of Gli mRNA expression in human hair follicle assessed as fold change at 0.5 uM measured for 48 hrs by qRT-PCR analysis
[4] = test system: Hair follicle; assay: Upregulation of Smo mRNA expression in human hair follicle assessed as fold change at 0.5 uM measured for 48 hrs by qRT-PCR analysis
[5] = test system: Hair follicle; assay: Upregulation of PTCH mRNA expression in human hair follicle assessed as fold change at 0.5 uM measured for 48 hrs by qRT-PCR analysis

Structure (SMILES): O=C(O[C@@H]1Cc2c(O)cc(O)cc2O[C@@H]1c1cc(O)c(O)c(O)c1)c1cc(O)c(O)c(O)c1 [EPIGALOCATECHIN GALLATE]
- fold change (FC) [1]: 4.48
- fold change (FC) [2]: 7
- fold change (FC) [3]: 1.67
- fold change (FC) [4]: 4.71
- fold change (FC) [5]: 4.18
